Here are results for 3 compounds from patent publication US11213543B2, “Human gastrointestinal microbiome modulating composition and methods of use” (priority 2011, dated 2022).

Entries after “also recorded” stand apart in the source; their conditions may differ.

For data set [1] the following is noted: cited from earlier work.
For data set [2] the following is noted: metformin without FORMULA A.
Procedure: They were started on metformin 500 mg twice a day and was instructed to measure their fasting blood sugar on a daily basis. Over the course of 7 days they were instructed to increase metformin to 1000 mg twice a day.
Details of data set [3]: key: ↑indicates an increase is reported; ↓ indicates that a decrease is reported. The conditions noted are these: reported in the references of Table 6, cited from earlier work.

Take `CN(C)C(=N)N=C(N)N` [metformin]: the weight loss in data set [1] (approximate) is 2 to 3 kg. Also, in data set [1] (compared to only 6% of diabetic patients not taking metformin), the “incidence of diarrhea in diabetic patients taking the drug” value was 20%. Further, in data set [2], the “stools / diarrhea on metformin” value is listed as “persistent watery stools; also recorded: Diarrhea”.

Inulin: in data set [3] (TG is triglyceride), the “Function: TG” value was “↓”. In data set [3], the “Function: GLP-1” value is given as “↑”, the “Function: PYY” value is “↑”, the “Function: ghrelin” value is “↓” and the “Function: satiety” value is “↑”.

For the compound β-Glucan, in data set [3], the “Function: GLP-1” value was “↑”, the “Function: LDL chol” value was “↓”, the “Function: PYY” value is “↑” and the “Function: ghrelin” value was “↓”. Further, in data set [3], the “Function: hunger” value is “↓” and the “Function: satiety” value is “↑”.
